According to patent US20260240800A1, “ELAFIBRANOR FOR THE TREATMENT OF PRIMARY BILIARY CHOLANGITIS” (Genfit, priority 2023, published 2026):

Tested on: participants with primary biliary cholangitis
Assay: NCT04526665 (ELATIVE) double-blind, placebo-controlled phase 3 clinical trial
Type: in vivo, human
Protocol: Participants aged 18 to 75 years, who had been diagnosed with primary biliary cholangitis according to established criteria, were recruited at 82 sites in 14 countries. Inclusion criteria were an alkaline phosphatase level of ≥1.67 times the upper limit of the normal range (ULN), and a total bilirubin level of ≤2 times the ULN. Prior to screening, eligible participants had received 13 to 15 mg/kg ursodeoxycholic acid treatment per day for at least 12 months (stable dose for at least 3 months) or were intolerant to ursodeoxycholic acid (no treatment for at least 3 months).
In this double-blind, placebo-controlled, phase 3 trial, participants with an inadequate response or intolerance to ursodeoxycholic acid were randomized 2:1 to receive elafibranor 80 mg or placebo once daily. Participants receiving stable doses of ursodeoxycholic acid for at least three months prior to enrollment continued their treatment regimen throughout the trial. The overall double-blind treatment period consisted of two parts. In part one, all randomized participants received a minimum of 52 weeks of double-blind treatment. In part two, participants continued to receive double-blind treatment beyond Week 52 in a variable treatment period until all participants had completed their Week 52 assessment or until a maximum treatment duration of 104 weeks, whichever came first. The first database lock occurred after the last participant completed their Week 52 visit in the double-blind period. At the end of the double-blind period (lasting 52 to 104 weeks), participants could optionally enter an open-label extension where they would receive elafibranor 80 mg for up to five years.
The primary endpoint of Study NCT04526665 was response to treatment in the intent-to-treat population at Week 52, defined as ALP<1.67×ULN, TB≤ULN, and ALP decrease ≥15% from baseline. The primary endpoint was also analyzed according to baseline alkaline phosphatase levels of ≤3 times versus >3 times the ULN.
From September 2020 through May 2023, 161 participants were randomly assigned to receive elafibranor 80 mg (108 participants) or placebo (53 participants); these participants made up the intent-to-treat (ITT) and safety populations.

Structure (SMILES): CSc1ccc(C(=O)C=Cc2cc(C)c(OC(C)(C)C(=O)O)c(C)c2)cc1 [elafibranor, 2-(2,6-dimethyl-4-{3-[4-(methylsulfanyl)phenyl]-3-oxoprop-1-en-1-yl}phenoxy)-2-methylpropanoic acid]
- efficacy in baseline ALP >1.67×ULN and ≤3×ULN relative to baseline ALP >3×ULN (80 mg daily): more than 3 times
- Primary endpoint met at week 52, n (%) (1.67 ULN < ALP ≤ 3 ULN, ITT Analysis Set, n=65): 46 (70.8) n (%)
- Response according to Paris I criteria: Primary endpoint met at week 52, n (%) (ALP <3×ULN, AST <2×ULN and TB ≤1 mg/dL, ITT Analysis Set, n=106): 73 (68.9) n (%)
- Primary endpoint met at week 52, n (%) (ALP > 3 ULN, ITT Analysis Set, n=43): 9 (20.9) n (%)
- safety and tolerability in patients (PBC patients): safe and well-tolerated
- Odds Ratio of response (elafibranor vs placebo), Paris I criteria (Week 52, ITT Analysis Set): 2.852
- Proportion of responders (Paris I criteria) (Week 52, ITT Analysis Set): 0.689
- Risk difference (Paris I response, elafibranor vs placebo) (Week 52, ITT Analysis Set): 0.220
- difference in Paris I response vs placebo (Week 52, ITT Analysis Set): 22.0%
- participants with response based on ALP<3×ULN, AST<2×ULN and TB≤1 mg/dl (Paris I) (Week 52, ITT Analysis Set, 73/106): 68.9%
- complete normalization of alkaline phosphatase at Week 52, difference vs placebo (all participants, Week 52): 15%
- complete normalization of alkaline phosphatase at Week 52, odds ratio vs placebo (all participants, Week 52, 95% CI 2.8 to infinity): infinity
- complete normalization of alkaline phosphatase at Week 52, % of participants (all participants, elafibranor 80 mg once daily, Week 52): 15%
- complete normalization of alkaline phosphatase at Week 52, % of patients (baseline ALP >3 times the ULN): 4.7%
- participants who met the primary endpoint (ALP<1.67×ULN, TB≤ULN, ALP decrease ≥15%) (baseline ALP >3 times the ULN (43 participants), Week 52): 20.9%
- frequency of ALP normalization relative to other participants (FIG. 4) (baseline ALP more than 1.67×ULN and at most 2×ULN vs others, Week 52): at least 4 times
- participants with a biochemical response at Week 52 (FIG. 3) (baseline ALP more than 1.67×ULN and at most 2.5×ULN): more than 80%
- participants with a biochemical response at Week 52 (FIG. 3) (baseline ALP more than 2.5×ULN and at most 3×ULN): more than 50%
- participants with a biochemical response at Week 52 (FIG. 3) (baseline ALP more than 3×ULN): less than 23%
- biochemical response and ALP normalization rates by baseline ALP (FIGS. 3 to 5) (baseline ALP ≤3 ULN versus higher baseline ALP): higher biochemical response and ALP normalization rates
- complete normalization of alkaline phosphatase at Week 52, % of patients (baseline ALP ≤3 times the ULN): 21.5%
- participants who met the primary endpoint (ALP<1.67×ULN, TB≤ULN, ALP decrease ≥15%) (baseline ALP ≤3 times the ULN (65 participants), Week 52): 70.8%
- reductions in alkaline phosphatase levels over time (baseline through Week 4, sustained significantly lower than placebo through Week 52): Rapid reductions
- reduction in plasma ALP levels from baseline compared to placebo (treatment with elafibranor vs placebo): statistically significant reduction
